From patent publication US20260000676A1, “CHROMAN DERIVATIVES AS ESTROGEN RECEPTOR DEGRADERS” (THE REGENTS OF THE UNIVERSITY OF MICHIGAN, priority 2022, published 2026)

Key:
[1] = molecular target: T1, ER (Homo sapiens (Human), UniProt P03372); assay: In-cell western (ICW) ER degradation assay in MCF-7 cells; format: cell-based; details: MCF7, 16 hrs; for Dmax: MCF7, maximal ER degradation; for DC50: ER degradation; for MCF7 Dmax %: maximal ER degradation
[2] = molecular target: ERα_LBD(GST) (Homo sapiens (Human), UniProt P03372); assay: LanthaScreen TR-FRET ERα competitive binding assay; details: read-out: ERα HTRF IC50
Chain of ERα_LBD(GST) (P03372 311-547): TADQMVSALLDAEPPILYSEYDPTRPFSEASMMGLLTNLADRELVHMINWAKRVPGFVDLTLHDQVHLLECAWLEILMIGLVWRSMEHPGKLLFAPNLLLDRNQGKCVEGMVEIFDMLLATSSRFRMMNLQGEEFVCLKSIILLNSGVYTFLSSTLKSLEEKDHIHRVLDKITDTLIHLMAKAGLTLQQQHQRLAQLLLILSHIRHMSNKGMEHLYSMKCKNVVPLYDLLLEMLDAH
Protocol: • 1. ERα_LBD(GST) protein: 4 nM • 2. Tb Anti-GST: 2 nM • 3. Fluormone ES2 Green tracer: 3 nM • 4. Incubation time: 60 min • 5. DMSO: 1% • 6. Assay buffer: Adding 1M DTT to Nuclear receptor Buffer K for final 5 mM DTT. • 7. ZPE: 1% DMSO • 8. HPE: 1 μM ARV_471 • 9. LanthaScreen® TR-FRET ERα Competitive Binding Assay (ThermoFisher, #A15887)
• 1) Cherry pick 2 μL 10 mM compound stock to column 1 of a 384 intermediate plate • 2) Add 18 μL DMSO to column 1 to dilute compound to 1 mM. • 3) Transfer 10 μL 1 mM compound to column 1 of a LDV plate. • 2) Add 6 μl DMSO to column 2-10 of the LDV plate. • 3) Compounds undergo 3-fold serial dilution (3 μL+6 μL) in DMSO. • 4) Transfer 120 nL compound solution to assay plate. • ZPE: 120 nL 100% DMSO
Prepare complete nuclear receptor buffer K by adding 1 M DTT to nuclear receptor buffer K for a final concentration of 5 mM DTT. Complete nuclear receptor buffer K must be prepared fresh daily. Prepare 2× protein solution using complete nuclear receptor buffer K containing 8 nM ERα_LBD(GST) and 4 nM Tb Anti-GST. Then, prepare 2× Fluormone ES2 Green tracer (6 nM) using complete nuclear receptor buffer K. Add 6 μL 2× Fluormone ES2 green tracer into a compound plate (PerkinElmer 6008289) by dragonfly with one-tips-addition. Subsequently, add 6 μL 2× protein solution into the plate. Briefly and gently mix the 384-well plate on a plate shaker and incubate at room temperature protected from light for 60 min. The plate is sealed with a cover to minimize evaporation. Read the plate at wavelengths of 520 nm and 495 nm. Calculate the TR-FRET ratio by dividing the emission signal at 520 nm by the emission signal at 495 nm. Generate a binding curve by plotting the emission ratio vs. the log [ligand]. To determine the IC50 value, fit the data using XL-fit for a sigmoidal dose-response.

[3] = molecular target: CRBN/DDB1 (Homo sapiens (Human), UniProt Q96SW2); assay: HTRF binding assay to CRBN/DDB1; details: read-out: CRBN HTRF IC50
Chain of CRBN/DDB1 (Q96SW2 whole entry): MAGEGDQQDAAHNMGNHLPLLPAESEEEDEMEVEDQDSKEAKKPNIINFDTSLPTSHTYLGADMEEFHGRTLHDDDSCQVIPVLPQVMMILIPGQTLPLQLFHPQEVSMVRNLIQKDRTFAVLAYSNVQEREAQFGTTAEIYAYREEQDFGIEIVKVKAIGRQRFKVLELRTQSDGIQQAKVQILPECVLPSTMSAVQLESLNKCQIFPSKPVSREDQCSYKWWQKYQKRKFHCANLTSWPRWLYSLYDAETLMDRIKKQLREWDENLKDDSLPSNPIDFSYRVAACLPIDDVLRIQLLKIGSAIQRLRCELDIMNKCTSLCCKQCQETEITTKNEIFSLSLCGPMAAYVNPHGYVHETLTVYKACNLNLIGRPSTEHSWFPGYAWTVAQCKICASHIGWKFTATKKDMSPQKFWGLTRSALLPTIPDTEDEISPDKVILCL
Chain of CRBN/DDB1 (Q16531 whole entry partner): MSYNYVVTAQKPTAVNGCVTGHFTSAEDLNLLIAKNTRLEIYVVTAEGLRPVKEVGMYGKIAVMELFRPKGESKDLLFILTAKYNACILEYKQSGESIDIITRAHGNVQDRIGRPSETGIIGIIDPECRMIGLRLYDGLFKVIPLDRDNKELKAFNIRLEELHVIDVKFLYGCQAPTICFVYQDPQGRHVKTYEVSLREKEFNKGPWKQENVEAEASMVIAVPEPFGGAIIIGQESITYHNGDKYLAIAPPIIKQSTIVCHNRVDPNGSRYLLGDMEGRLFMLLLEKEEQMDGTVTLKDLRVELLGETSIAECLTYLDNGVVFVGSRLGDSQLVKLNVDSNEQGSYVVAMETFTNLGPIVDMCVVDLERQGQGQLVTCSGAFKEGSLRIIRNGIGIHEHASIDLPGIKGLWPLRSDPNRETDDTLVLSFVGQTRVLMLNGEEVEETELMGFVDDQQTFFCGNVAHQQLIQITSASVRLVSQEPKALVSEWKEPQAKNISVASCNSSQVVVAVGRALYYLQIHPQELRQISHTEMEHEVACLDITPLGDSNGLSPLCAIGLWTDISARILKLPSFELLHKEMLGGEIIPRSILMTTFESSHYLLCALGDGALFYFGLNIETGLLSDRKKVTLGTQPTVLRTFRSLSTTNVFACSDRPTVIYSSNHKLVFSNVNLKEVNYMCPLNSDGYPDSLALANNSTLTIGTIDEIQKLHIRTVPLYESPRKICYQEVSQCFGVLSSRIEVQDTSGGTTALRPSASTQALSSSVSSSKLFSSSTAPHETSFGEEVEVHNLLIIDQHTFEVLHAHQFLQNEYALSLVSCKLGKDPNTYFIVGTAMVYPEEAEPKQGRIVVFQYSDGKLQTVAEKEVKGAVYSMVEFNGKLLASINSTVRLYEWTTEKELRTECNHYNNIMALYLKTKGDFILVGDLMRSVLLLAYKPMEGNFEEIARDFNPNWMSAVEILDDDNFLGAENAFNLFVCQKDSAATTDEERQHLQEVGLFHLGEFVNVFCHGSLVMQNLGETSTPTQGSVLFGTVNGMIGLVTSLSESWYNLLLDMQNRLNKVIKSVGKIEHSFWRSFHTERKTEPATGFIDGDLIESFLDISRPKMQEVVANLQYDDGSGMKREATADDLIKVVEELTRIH
Protocol: The binding potency was determined using HTRF assay technology (Perkin Elmer). Compounds were serially diluted in DMSO and 0.2 μL volume was transferred to white 384-well plate.

[4] = molecular target: T1, ER; assay: In-cell western (ICW) ER degradation assay in T47D cells; format: cell-based; details: 16 hrs; for DC50: ER degradation; for Dmax / T47D Dmax %: maximal ER degradation

T1 sequence (P03372 whole entry): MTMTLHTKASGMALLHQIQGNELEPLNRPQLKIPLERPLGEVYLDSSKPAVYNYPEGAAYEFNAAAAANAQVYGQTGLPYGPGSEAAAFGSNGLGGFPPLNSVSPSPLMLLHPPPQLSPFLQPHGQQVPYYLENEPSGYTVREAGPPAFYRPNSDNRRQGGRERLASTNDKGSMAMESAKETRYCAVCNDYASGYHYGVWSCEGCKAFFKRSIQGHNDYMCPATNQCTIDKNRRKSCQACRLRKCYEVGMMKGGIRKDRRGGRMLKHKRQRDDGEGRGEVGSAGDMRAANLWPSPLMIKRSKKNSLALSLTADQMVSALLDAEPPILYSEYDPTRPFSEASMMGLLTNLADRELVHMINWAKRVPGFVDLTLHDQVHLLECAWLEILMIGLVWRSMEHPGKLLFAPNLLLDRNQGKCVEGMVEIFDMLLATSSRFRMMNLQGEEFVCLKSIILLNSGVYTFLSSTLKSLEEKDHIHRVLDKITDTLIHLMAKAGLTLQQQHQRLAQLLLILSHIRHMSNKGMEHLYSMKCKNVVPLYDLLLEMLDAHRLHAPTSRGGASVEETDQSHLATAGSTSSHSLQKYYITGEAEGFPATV

| Compound | Dmax [1] [%] | IC50 [2] [nM] | IC50 [3] [nM] | DC50 [1] [nM] | DC50 [4] [nM] | Dmax [4] [%] | MCF7 Dmax % [1] | T47D Dmax % [4] |
| --- | --- | --- | --- | --- | --- | --- | --- | --- |
| O=C1CCC(N2Cc3c(ccc4c3OC[C@H]3CN(CC5CCN(c6ccc([C@@H]7c8ccc(O)cc8OC[C@@H]7c7ccccc7)cc6)CC5)CCN43)C2=O)C(=O)N1 (single isomer, unassigned) [Compound A8, 3-((R)-7-((1-(4-((3S,4R)-7-hydroxy-3-phenylchroman-4-yl)phenyl)piperidin-4-yl)methyl)-1-oxo-1,3,5,5a,6,7,8,9-octahydro-2H-pyrazino[1′,2′:4,5][1,4]oxazino[2,3-e]isoindol-2-yl)piperidine-2,6-dione] | 50 to 75 | < 5 | – | – | – | – | – | – |
| O=C1CCC(N2Cc3c(ccc4c3OC[C@H]3CN(CC5CCN(c6ccc([C@@H]7c8ccc(O)cc8OC[C@@H]7c7ccccc7)cc6F)CC5)CCN43)C2=O)C(=O)N1 (single isomer, unassigned) [Compound A9, 3-((R)-7-((1-(2-fluoro-4-((3S,4R)-7-hydroxy-3-phenylchroman-4-yl)phenyl)piperidin-4-yl)methyl)-1-oxo-1,3,5,5a,6,7,8,9-octahydro-2H-pyrazino[1′,2′:4,5][1,4]oxazino[2,3-e]isoindol-2-yl)piperidine-2,6-dione] | 50 to 75 | < 5 | – | – | – | – | – | – |
| O=C1CCC(N2Cc3c(ccc4c3OC[C@@H]3CN(CC5CC6(CCN(c7ccc([C@H]8c9ccc(O)cc9OC[C@H]8c8ccccc8)cc7)CC6)C5)CCN43)C2=O)C(=O)N1 (single isomer, unassigned) [Compound A21] | – | < 5 | – | – | – | – | – | – |
| O=C1CCC(N2C(=O)c3cc4c(cc3C2=O)CN(CC(=O)N2CC3(CCN(c5ccc([C@@H]6c7ccc(O)cc7OC[C@@H]6c6ccccc6)cc5)CC3)C2)C4)C(=O)N1 (single isomer, unassigned) [Compound A26] | – | < 5 | 50 to 500 | – | – | – | – | – |
| O=C1CCC(N2Cc3cc4c(cc3C2=O)OC[C@@H]2CN(CC3CC5(CCN(c6ccc([C@H]7c8ccc(O)cc8OC[C@H]7c7ccccc7)cc6)CC5)C3)CCN42)C(=O)N1 (single isomer, unassigned) [Compound A27] | 50 to 75 | < 5 | – | – | – | – | – | – |
| O=C1CCC(N2Cc3c(ccc4c3OC[C@H]3CN(CC5CCN(c6ncc([C@H]7c8ccc(O)cc8OC[C@H]7c7ccccc7)cn6)CC5)CCN43)C2=O)C(=O)N1 (single isomer, unassigned) [Compound A35] | 25 to 50 | < 5 | 50 to 500 | 1 to 10 | 1 to 10 | 50 to 75 | – | – |
| O=C1CC[C@@H](N2Cc3cc4c(cc3C2=O)CN(C(=O)CN2CCC3(CC2)CCN(c2ccc([C@H]5c6ccc(O)cc6OC[C@H]5c5ccccc5)cc2)CC3)C4)C(=O)N1 (single isomer, unassigned) [Compound A41] | 50 to 75 | ≥ 5 | 50 to 500 | 1 to 10 | < 1 | ≥ 75 | – | – |
| O=C1CCC(N2C(=O)c3cc4c(cc3C2=O)CN(CC(=O)N2CCC3(CC2)CN(c2ccc([C@@H]5c6ccc(O)cc6OC[C@@H]5c5ccccc5)cc2)C3)C4)C(=O)N1 (single isomer, unassigned) [Compound A44] | 50 to 75 | < 5 | 50 to 500 | 1 to 10 | < 1 | 50 to 75 | – | – |
| O=C1CC[C@H](N2Cc3cc4c(cc3C2=O)OC[C@@H]2CN(CC3CC5(CCN(c6ccc([C@@H]7c8ccc(O)cc8OC[C@@H]7c7ccccc7)cc6)CC5)C3)CCN42)C(=O)N1 (single isomer, unassigned) [Compound A59] | 50 to 75 | < 5 | – | 1 to 10 | < 1 | ≥ 75 | – | – |
| O=C1CCC(N2Cc3c(ccc4c3OC[C@H]3CN(CC5CC6(CCN(c7ccc([C@@H]8c9ccc(O)cc9OC[C@@H]8c8ccccc8)cn7)CC6)C5)CCN43)C2=O)C(=O)N1 (single isomer, unassigned) [Compound A66] | – | ≥ 5 | – | 1 to 10 | 1 to 10 | – | B (“B”: >50% and <75%) | B (“B”: >50% and <75%) |
| O=C1CCC(N2Cc3cc(N4CCN(CC5CC6(CCN(c7ccc([C@@H]8c9ccc(O)cc9OC[C@@H]8c8ccccc8)cn7)CC6)C5)CC4)ccc3C2=O)C(=O)N1 (single isomer, unassigned) [Compound A68] | – | < 5 | – | 1 to 10 | 1 to 10 | – | B (“B”: >50% and <75%) | A (“A”; >=75%) |
| COc1cc(N2CCC(CN3CCN4c5cc6c(cc5OC[C@H]4C3)C(=O)N(C3CCC(=O)NC3=O)C6)CC2)ccc1[C@@H]1c2ccc(O)cc2OC[C@@H]1c1ccccc1 (single isomer, unassigned) [Compound A84] | 50 to 75 | < 5 | – | – | – | 50 to 75 | – | – |
| COc1cc(N2CCC(CN3CCN4c5ccc6c(c5OC[C@@H]4C3)CN([C@@H]3CCC(=O)NC3=O)C6=O)CC2)c(F)cc1[C@@H]1c2ccc(O)cc2OC[C@@H]1c1ccccc1 (single isomer, unassigned) [Compound A106] | ≥ 75 | < 5 | – | < 1 | < 1 | ≥ 75 | – | – |
| COc1cc(N2CCC(CN3CCN4c5ccc6c(c5OC[C@@H]4C3)CN([C@@H]3CCC(=O)NC3=O)C6=O)CC2)ccc1[C@H]1c2ccc(O)cc2OC[C@H]1c1ccccc1 (single isomer, unassigned) [Compound A121] | ≥ 75 | < 5 | – | – | – | ≥ 75 | – | – |
| COc1cc(N2CCC(CN3CCN4c5cc6c(cc5OC[C@H]4C3)C(=O)N([C@@H]3CCC(=O)NC3=O)C6)CC2)ccc1[C@H]1c2ccc(O)cc2OC[C@H]1c1ccccc1 (single isomer, unassigned) [Compound A122] | ≥ 75 | < 5 | – | < 1 | < 1 | ≥ 75 | – | – |
| COc1cc(N2CCC3(CC2)CC(CN2CCN4c5ccc6c(c5OC[C@@H]4C2)CN([C@@H]2CCC(=O)NC2=O)C6=O)C3)c(F)cc1[C@@H]1c2ccc(O)cc2OC[C@@H]1c1ccccc1 (single isomer, unassigned) [Compound A125] | ≥ 75 | < 5 | – | < 1 | < 1 | ≥ 75 | – | – |
| O=C1CC[C@@H](N2Cc3c(ccc4c3OC[C@@H]3CN(C[C@@H]5COC6(CCN(c7ccc([C@H]8c9ccc(O)cc9OC[C@H]8c8ccccc8)cc7)CC6)C5)CCN43)C2=O)C(=O)N1 (single isomer, unassigned) [Compound A132] | 50 to 75 | < 5 | – | 1 to 10 | 1 to 10 | 50 to 75 | – | – |
| O=C1CCC(N2C(=O)c3cc4c(cc3C2=O)CN(CC(=O)N2CCC3(CC2)CCN(c2ccc([C@H]5c6ccc(O)cc6OC[C@H]5c5ccccc5)cc2)CC3)C4)C(=O)N1 (stereo partly drawn) [Compound A40, 2-(2,6-dioxopiperidin-3-yl)-6-(2-(9-(4-((3R,4S)-7-hydroxy-3-phenylchroman-4-yl)phenyl)-3,9-diazaspiro[5.5]undecan-3-yl)-2-oxoethyl)-6,7-dihydropyrrolo[3,4-f]isoindole-1,3(2H,5H)-dione] | 50 to 75 | ≥ 5 | – | 1 to 10 | < 1 | 50 to 75 | – | – |
| O=C1CCC(N2Cc3cc4c(cc3C2=O)OCC42CCN(CC3CCC4(CC3)CN(c3ccc([C@H]5c6ccc(O)cc6OC[C@H]5c5ccccc5)cc3)C4)CC2)C(=O)N1 (stereo partly drawn) [Compound A99, 3-(1′-((2-(4-((3R,4S)-7-hydroxy-3-phenylchroman-4-yl)phenyl)-2-azaspiro[3.5]nonan-7-yl)methyl)-7-oxo-5,7-dihydro-2H,6H-spiro[furo[2,3-f]isoindole-3,4′-piperidin]-6-yl)piperidine-2,6-dione] | 50 to 75 | < 5 | – | < 1 | < 1 | 50 to 75 | – | – |
| O=C1CC[C@@H](N2Cc3cc4c(cc3C2=O)OCC42CCN(CC3CCC4(CC3)CN(c3ccc([C@H]5c6ccc(O)cc6OC[C@H]5c5ccccc5)cc3)C4)CC2)C(=O)N1 [Compound A153, (R)-3-(1′-((2-(4-((3R,4S)-7-hydroxy-3-phenylchroman-4-yl)phenyl)-2-azaspiro[3.5]nonan-7-yl)methyl)-7-oxo-5,7-dihydro-2H,6H-spiro[furo[2,3-f]isoindole-3,4′-piperidin]-6-yl)piperidine-2,6-dione] | 50 to 75 | < 5 | – | < 1 | < 1 | ≥ 75 | – | – |
